Test results as given in patent publication US20240350456A1, “COMPOSITIONS AND METHODS FOR DIAGNOSING AND TREATING INFLAMMATORY CONDITIONS” (RUTGERS, THE STATE UNIVERSITY OF NEW JERSEY, priority 2023, published 2024).
Entries after “also recorded” stand apart in the source; their conditions may differ.

How the values were obtained:
[1] = tested on: human-derived Caco-2 cells; experiment: In vitro transwell screening in Caco-2 cells, barrier disrupted by Clostridium difficile toxin (TEER and FITC-dextran permeability); assay type: cell-based; details: applied in the basolateral compartment, TOX
[2] = tested on: leaky gut mouse model (DSS colitis); experiment: DSS (3%) leaky gut colitis mouse model, metabolites i.p.; assay type: in vivo
From the text: A moderate amount of DSS (3%) creates a leaky gut model.
FIG. 23A, Analysis of plasma ovalbumin levels after oral ovalbumin gavage in mice treated with exogenous MNA or PBS. […] Analysis of fecal lipocalin levels in mice treated with PBS or MNA with or without DSS. […] Representative histology sections of mice treated with PBS or MNA with or without DSS. FIG. 23D, quantification of mouse histology sections scored for colitis index.
FIG. 24A, Analysis of zonula occludens (Tjp1) and occluding (Ocln) mRNA levels after treatment with PBS or MNA with or without DSS. FIG. 24B, Western blot analysis and quantification of Ocln protein levels after treatment with PBS or MNA with or without DSS. FIG. 24C, Quantified levels of occluding in the ileum (top) and colon (bottom) using immunofluorescence antibody staining.
Administration of DSS induces experimental colitis and disrupts gut barrier in vivo in animal models.
Exogenous MNA administration was assessed by plasma ovalbumin levels after oral ovalbumin gavage—an accepted method to determine permeability of the gut paracellular pathway. […] (FIG. 23B) Histology sections of mice treated with or without DSS and PBS or MNA were also obtained. […] Sections from several mice were also examined by a blinded observer and scored for colitis index.
(FIG. 24B) Using immunofluoresce antibody staining, quantified levels of occludin in the ileum and colon were also analyzed.

Caco2 BBE monolayer = experiment: TEER of confluent Caco2 BBE monolayer disrupted by luminal DSS, with MNA; assay type: cell-based, human; details: low dose
Procedure: MNA was applied from Day-5 at different concentrations on the luminal (L) or basolateral (BL) compartments. The monolayer was disrupted by 3% DSS in the luminal side on days 5-8.
Caco2 were provided with MNA at day 0 either luminally (L, mimics oral) or basolaterally (BL, mimics intra-peritoneal) (FIG. 17). Then DSS was added to lumen to disrupt gut barrier in all treatments except control (blue circles).

[3] = tested on: C57BL/6 mice with DSS-induced mild colitis; experiment: DSS induced mild colitis treatment with LGG metabolites (2.5% DSS); assay type: in vivo, mouse; details: metabolite i.p. twice
Procedure: FIG. 13A-13M. IPA requires Ocln to alleviate LPS-induced leaky epithelium. FIG. 13A, experimental design. Organoids were derived from tamoxifen-inducible, intestine-specific Ocln-knockout (KO) mice generated by crossing a floxed Ocln^fl/fl with Villin-CreERT2 mice. FIG. 13B, Representative images and FIG. 13C, quantitative analysis of permeability assay. LPS was added to CCM media (basolateral side) with and without IPA […] and IAM (200 μM) (n=3 mice). *** P<0.001, compared with WT control, †P<0.05 compared with KO-control. FIG. 13D, Representative images of immunofluorescent staining of Ocln in WT control and Ocln KO conventional mice, L=lumen. MNA improves but ASA exacerbates dextran sodium sulfate (DSS)-induced leaky gut. FIG. 13E, experimental design, evaluation in vivo of metabolites (Met). Methylnicotinamide (MNA. […]) and L-argininosuccinate (ASA. 3.6 mg/kg) were administered (i.p.) twice 1-day before and 3 days after DSS treatment p.o. 4 kDa fluorescein isothiocyanate (FITC)-dextran was gavaged 4 h before sacrifice. FIG. 13F, body weight of DSS-treated mice with and without metabolites, FIG. 13G, representative images of Ocln-stained colon sections (green; left panel) and ECad (red; middle). Merged images (yellow; right panel) depict Ocln location in TJ of MNA-treated but not in DSS-only and ASA-treated colon (arrows). Quantitative fluorescent intensity of Ocln (FIG. 13H) and ECad (FIG. 13I) in the TJ, relative to DSS only controls. FIG. 13J, DSS scoring. FIG. 13K, representative H&E images of DSS, DSS+ MNA and DSS+ASA colon sections. FIG. 13L, In vivo permeability as determined by fluorescent intensity of FITC in serum. FIG. 13M, Serum level of interleukin-6.
DSS induced mild colitis treatment with LGG metabolites. To assess in vivo impact of metabolites on gut barrier function, conventional C57BL/6 mice (8 weeks of age) were administered with 2.5% dextran sodium sulfate (DSS) in drinking water to induce mild colitis. Animals were intraperitoneal injected with either PBS vehicle, 30 mg/kg methylnicotinamide chloride, or 3.6 mg/kg argininosuccinic acid dissolved in sterile PBS at Day-1 and Day 4 of the experiment. Body weight was recorded daily. At Day 7, 4 hours before sacrifice and collection of blood, animals were gavaged with 600 mg/kg with 4 kDa FITC-dextran. Blood was collected in 5% EDTA and subsequently centrifuged at 3000 g for 5 minutes for plasma collection. FITC readings were collected by diluting 25 μl of plasma in 75 μl of PBS and analyzed using a Glomax (Promega, GMMTE9032) with Ex490/Em510-570 filter cube module. Serum concentration of interleukin-6 (Cat. No. Biolegend 431304) was also determined. Ileum and colon sections were collected, fixed in 4% paraformaldehyde, processed for embedding in paraffin wax. Pathohistology of intestine was observed by routine H&E staining.

NC(=O)Cc1c[nH]c2ccccc12 [Indole-3-acetamide, indole-3-acetamide]
TEER, indole metabolites [1]: more effective when applied in this compartment than in the luminal

C[n+]1cccc(C(N)=O)c1 [Methylnicotinamide, 1-methynicotinamide]
body weight loss and recovery in DSS leaky gut model ([2]; 3% DSS, i.p. every other day, listed as MNA): dampened then accelerated the recovery of body weight; also recorded: robust and faster recovery | tissue damage in histology sections ([2]; DSS-treated animals): alleviated | fecal lipocalin levels ([2]; MNA-DSS vs PBS-DSS): reduced fecal lipocalin | body weight when injected alone ([2]; i.p. every other day, no DSS): no deleterious effect on body weight | barrier function (plasma ovalbumin after oral ovalbumin gavage), increase vs PBS treated mice ([2]; i.p. injection): 2 fold | colitis score (colitis index, blinded observer) ([2]; with DSS): protected the tissue from damage even with DSS | mRNA levels of Tjp1 and Ocln in the ileum ([2]; with DSS): increasing the mRNA levels to normal | TEER after DSS barrier disruption (Caco2 BBE monolayer): prevented barrier disruption | E-cad abundance and localization in colonic epithelial cells [3]: significantly increased | Ocln expression in colonic epithelium [3]: significantly elevated Ocln expression | pathology score (epithelial cell disruption and immune cell infiltration) [3]: improved pathology score | DSS-induced leaky gut (overall) ([3]; listed as MNA): sealed the leaky gut; also recorded: improves | serum IL-6 level ([3]; listed as MNA): decreased; also recorded: reduced serum proinflammatory IL-6 levels
